Legend:
[1] = biological target: T1, Ephrin type-A receptor 3 (Homo sapiens) (UniProt P29320); test: Selectivity interaction (KinomeScan (DiscoverX)) EUB0000229b EPHA3; conditions: at 10 µM
T1 sequence (whole entry): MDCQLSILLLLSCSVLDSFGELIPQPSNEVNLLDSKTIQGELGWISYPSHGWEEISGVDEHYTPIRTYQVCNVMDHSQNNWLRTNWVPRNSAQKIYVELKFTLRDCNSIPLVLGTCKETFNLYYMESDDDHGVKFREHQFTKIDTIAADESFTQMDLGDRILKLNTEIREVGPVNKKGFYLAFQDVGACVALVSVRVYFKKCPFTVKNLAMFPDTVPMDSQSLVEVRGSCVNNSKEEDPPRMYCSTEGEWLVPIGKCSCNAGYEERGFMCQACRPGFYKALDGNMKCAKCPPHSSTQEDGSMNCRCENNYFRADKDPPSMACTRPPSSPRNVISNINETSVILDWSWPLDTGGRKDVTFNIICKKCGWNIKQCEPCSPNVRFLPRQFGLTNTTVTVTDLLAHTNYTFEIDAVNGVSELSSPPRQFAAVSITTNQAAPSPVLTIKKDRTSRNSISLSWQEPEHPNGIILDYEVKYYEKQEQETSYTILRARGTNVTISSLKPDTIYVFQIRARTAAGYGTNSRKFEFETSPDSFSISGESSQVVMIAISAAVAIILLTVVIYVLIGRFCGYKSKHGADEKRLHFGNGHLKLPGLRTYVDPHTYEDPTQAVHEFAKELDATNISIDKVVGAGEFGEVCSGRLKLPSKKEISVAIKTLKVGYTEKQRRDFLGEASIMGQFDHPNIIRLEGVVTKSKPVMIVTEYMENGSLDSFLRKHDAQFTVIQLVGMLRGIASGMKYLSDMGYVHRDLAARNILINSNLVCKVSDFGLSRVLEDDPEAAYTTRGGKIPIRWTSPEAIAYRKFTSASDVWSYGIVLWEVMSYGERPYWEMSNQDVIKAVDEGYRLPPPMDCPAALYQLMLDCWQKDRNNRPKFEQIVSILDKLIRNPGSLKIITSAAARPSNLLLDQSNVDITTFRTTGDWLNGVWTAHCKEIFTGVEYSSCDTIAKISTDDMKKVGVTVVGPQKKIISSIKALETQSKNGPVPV

[2] = biological target: Tyrosine-protein kinase Srms (Homo sapiens) (UniProt Q9H3Y6); test: Selectivity interaction (KinomeScan (DiscoverX)) EUB0000695a SRMS; conditions: at 100 nM
[3] = biological target: T2, Mitogen-activated protein kinase kinase kinase 7 (Homo sapiens) (UniProt O43318); test: Selectivity interaction (KinomeScan (DiscoverX)) EUB0000695a MAP3K7; conditions: at 100 nM
T2 sequence (whole entry): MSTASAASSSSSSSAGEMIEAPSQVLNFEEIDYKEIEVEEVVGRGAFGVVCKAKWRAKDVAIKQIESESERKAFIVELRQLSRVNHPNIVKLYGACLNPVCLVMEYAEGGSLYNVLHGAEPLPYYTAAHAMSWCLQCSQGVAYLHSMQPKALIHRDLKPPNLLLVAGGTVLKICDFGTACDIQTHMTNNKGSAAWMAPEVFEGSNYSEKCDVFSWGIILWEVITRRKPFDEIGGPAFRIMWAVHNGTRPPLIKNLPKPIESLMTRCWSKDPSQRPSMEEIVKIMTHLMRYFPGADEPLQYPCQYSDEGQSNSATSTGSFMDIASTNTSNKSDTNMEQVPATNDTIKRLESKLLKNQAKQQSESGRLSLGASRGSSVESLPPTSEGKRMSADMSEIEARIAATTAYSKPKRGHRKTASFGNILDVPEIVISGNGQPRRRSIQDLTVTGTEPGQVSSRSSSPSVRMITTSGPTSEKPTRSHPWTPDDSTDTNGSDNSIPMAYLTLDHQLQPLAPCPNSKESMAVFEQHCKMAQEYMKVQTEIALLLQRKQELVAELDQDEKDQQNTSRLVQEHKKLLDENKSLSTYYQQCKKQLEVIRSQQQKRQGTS

[4] = biological target: T3, Mitogen-activated protein kinase 13 (Homo sapiens) (UniProt O15264); test: Selectivity interaction (Kinase screening (Upstate/Millipore)) EUB0000604a MAPK13
T3 sequence (whole entry): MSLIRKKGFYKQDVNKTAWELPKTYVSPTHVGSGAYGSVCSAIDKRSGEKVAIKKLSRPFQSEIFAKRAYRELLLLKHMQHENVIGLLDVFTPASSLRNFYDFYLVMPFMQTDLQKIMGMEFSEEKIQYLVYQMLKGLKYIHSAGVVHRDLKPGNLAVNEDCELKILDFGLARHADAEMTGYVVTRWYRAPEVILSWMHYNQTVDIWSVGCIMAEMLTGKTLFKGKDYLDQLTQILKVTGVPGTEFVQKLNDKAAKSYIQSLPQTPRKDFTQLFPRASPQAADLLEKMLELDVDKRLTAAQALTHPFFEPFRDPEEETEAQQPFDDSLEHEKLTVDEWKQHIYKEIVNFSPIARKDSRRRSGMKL

[5] = biological target: Histone-lysine N-methyltransferase SETDB1 (Homo sapiens) (UniProt Q15047); test: Selectivity interaction (Methyltransferase screen (Scintillation proximity assays)) EUB0000255b SETDB1
[6] = biological target: Mitogen-activated protein kinase kinase kinase 20 (Homo sapiens) (UniProt Q9NYL2); test: Selectivity interaction (KinomeScan (DiscoverX)) EUB0000618a MAP3K20; conditions: at 10 µM
[7] = biological target: Phosphatidylinositol 4-kinase type 2-beta (Homo sapiens) (UniProt Q8TCG2); test: Selectivity interaction (ActivX KiNativ screen (kinase selectivity in THP-1 cell lysates)) EUB0000639a PI4K2B; assay type: subcellular; conditions: lysate
[8] = biological target: Microtubule-associated serine/threonine-protein kinase 1 (Homo sapiens) (UniProt Q9Y2H9); test: Selectivity interaction (Ambit KINOMEscan and KiNATiv profiling in Jurkat cells) EUB0000090b MAST1; assay type: cell-based; conditions: at 1 µM
Sequence of Microtubule-associated serine/threonine-protein kinase 1 (Homo sapiens) (Q9Y2H9 whole entry, looked up): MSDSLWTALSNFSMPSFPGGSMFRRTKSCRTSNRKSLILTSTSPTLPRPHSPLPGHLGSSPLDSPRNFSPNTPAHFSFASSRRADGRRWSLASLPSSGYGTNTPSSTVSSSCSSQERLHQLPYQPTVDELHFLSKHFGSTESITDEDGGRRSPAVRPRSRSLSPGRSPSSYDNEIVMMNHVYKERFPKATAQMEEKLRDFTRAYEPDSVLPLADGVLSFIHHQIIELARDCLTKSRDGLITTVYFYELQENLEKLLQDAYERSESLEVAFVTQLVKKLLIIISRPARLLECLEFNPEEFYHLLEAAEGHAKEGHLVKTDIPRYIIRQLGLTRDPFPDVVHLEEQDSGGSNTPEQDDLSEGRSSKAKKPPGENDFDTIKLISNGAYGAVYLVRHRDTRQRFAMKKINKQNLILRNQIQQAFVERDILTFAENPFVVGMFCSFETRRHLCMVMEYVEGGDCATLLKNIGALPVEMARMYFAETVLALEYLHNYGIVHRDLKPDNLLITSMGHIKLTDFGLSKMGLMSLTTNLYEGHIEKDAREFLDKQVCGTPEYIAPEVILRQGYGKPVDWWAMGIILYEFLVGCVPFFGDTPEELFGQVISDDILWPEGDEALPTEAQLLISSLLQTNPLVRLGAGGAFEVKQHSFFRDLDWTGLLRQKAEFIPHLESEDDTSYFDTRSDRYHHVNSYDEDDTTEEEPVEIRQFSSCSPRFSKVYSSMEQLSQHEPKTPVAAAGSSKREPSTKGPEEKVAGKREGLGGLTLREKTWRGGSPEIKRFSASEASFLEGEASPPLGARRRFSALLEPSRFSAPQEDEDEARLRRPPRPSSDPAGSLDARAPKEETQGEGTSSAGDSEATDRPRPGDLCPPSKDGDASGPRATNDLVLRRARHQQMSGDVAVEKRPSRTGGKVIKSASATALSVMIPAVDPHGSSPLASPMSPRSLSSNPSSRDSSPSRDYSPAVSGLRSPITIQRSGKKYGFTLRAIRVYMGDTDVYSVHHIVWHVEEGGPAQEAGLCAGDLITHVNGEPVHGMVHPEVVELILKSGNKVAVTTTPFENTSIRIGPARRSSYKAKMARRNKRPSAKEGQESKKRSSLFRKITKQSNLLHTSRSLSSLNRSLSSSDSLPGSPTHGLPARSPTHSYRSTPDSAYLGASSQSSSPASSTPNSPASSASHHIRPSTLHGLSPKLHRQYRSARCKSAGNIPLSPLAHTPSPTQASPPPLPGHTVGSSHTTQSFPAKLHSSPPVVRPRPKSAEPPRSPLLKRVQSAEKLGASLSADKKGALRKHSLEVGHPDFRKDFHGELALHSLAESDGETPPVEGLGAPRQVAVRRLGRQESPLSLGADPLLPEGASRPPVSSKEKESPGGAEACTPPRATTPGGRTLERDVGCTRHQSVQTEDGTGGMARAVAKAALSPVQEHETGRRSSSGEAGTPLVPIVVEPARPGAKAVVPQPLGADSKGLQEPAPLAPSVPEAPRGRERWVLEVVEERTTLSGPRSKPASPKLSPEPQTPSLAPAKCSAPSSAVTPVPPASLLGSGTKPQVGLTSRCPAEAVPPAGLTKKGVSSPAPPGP

Sequence of Phosphatidylinositol 4-kinase type 2-beta (Homo sapiens) (Q8TCG2 whole entry): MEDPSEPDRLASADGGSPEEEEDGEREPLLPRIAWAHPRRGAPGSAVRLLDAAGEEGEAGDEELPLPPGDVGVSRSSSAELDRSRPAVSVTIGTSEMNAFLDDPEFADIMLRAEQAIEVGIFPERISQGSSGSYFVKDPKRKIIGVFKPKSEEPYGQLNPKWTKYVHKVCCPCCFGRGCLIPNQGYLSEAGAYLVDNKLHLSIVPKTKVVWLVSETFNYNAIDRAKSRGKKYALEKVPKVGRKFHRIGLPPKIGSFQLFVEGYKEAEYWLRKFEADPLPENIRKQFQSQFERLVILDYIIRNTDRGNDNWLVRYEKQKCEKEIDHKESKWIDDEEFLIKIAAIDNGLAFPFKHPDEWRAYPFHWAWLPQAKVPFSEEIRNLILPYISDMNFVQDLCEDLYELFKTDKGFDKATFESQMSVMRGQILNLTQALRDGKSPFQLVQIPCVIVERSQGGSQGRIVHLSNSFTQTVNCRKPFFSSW
Sequence of Mitogen-activated protein kinase kinase kinase 20 (Homo sapiens) (Q9NYL2 2-800 limits assumed): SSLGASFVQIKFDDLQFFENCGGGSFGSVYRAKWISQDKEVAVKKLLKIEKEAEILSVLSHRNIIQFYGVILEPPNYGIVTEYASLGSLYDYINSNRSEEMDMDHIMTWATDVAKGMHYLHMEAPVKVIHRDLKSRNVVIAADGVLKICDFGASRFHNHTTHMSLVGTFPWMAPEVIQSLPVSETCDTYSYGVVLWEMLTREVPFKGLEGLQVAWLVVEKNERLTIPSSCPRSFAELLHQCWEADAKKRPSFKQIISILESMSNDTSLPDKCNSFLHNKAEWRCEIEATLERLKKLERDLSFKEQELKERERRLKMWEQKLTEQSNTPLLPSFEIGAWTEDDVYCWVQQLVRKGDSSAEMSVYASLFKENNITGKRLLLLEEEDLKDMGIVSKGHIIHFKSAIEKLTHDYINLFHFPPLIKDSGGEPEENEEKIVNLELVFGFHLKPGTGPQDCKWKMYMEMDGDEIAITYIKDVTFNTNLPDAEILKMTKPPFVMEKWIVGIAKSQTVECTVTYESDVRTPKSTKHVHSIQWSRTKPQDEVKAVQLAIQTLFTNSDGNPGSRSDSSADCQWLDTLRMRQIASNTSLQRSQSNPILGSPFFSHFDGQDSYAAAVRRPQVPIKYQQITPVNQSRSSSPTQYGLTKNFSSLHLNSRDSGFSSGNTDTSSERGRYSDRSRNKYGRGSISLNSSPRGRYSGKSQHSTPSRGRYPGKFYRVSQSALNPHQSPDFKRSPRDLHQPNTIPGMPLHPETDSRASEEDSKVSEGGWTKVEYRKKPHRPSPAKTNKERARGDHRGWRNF
Sequence of Tyrosine-protein kinase Srms (Homo sapiens) (Q9H3Y6 whole entry): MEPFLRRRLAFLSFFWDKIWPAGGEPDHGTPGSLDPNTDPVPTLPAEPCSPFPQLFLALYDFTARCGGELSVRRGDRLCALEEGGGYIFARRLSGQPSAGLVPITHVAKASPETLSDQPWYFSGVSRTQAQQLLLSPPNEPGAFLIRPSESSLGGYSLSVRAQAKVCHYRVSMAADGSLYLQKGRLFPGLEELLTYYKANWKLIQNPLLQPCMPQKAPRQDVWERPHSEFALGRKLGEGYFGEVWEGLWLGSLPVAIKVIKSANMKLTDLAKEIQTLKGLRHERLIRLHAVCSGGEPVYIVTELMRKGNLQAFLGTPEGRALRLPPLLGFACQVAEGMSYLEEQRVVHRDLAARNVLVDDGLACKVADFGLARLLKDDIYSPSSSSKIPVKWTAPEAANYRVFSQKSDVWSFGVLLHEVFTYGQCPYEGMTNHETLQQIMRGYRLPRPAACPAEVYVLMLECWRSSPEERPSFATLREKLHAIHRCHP

How did the % binding [1] turn out when `COc1cc(N(C)c2ccnc3ccc(C(F)(F)F)cc23)cc(OC)c1OC` was run?
Its % binding is 93%.

Which results are given for `Cc1cc(F)c(C(=O)Nc2cccc(-c3nncn3C(C)C)n2)cc1-n1cnc(C2CC2)c1`?
% of control [2]: 100%; % of control [3]: 81%

`Cc1cnc(Nc2ccc(F)cc2Cl)nc1-c1c[nH]c(C(=O)N[C@H](CO)c2cccc(Cl)c2)c1` was tested. Which % of inhibition [4] did it give?
Its % of inhibition is 54%.

For `COCCN1CCC(c2cc(CN(C)C(=O)c3cccc(Oc4ccccc4)c3)ccn2)CC1`, which % activity ([5]; at 1 µM) is on record?
Its % activity is over 95%.

What about the % activity ([5]; at 10 µM) of the same molecule?
The % activity was over 90%.

For `O[C@H]1CC[C@H](Nc2ncc3nc(Nc4c(F)cc(F)cc4F)n([C@H]4CCOC4)c3n2)CC1`, which % of control [6] is on record?
Its % of control is 100%.

Which results are given for `CC[C@@H]1[C@H](F)C(=O)N[C@@H]1COc1nccc2cc(C(N)=O)c(OC)cc12` [ZIMLOVISERTIB]?
% of inhibition ([7]; at 0.01 µM): 13.9%; % of inhibition ([7]; at 0.04 µM): -2.8%; % of inhibition ([7]; at 0.2 µM): -47.4%; % of inhibition ([7]; at 1 µM): -23.2%; % of inhibition ([7]; at 5 µM): -24%

For `CN(C)C/C=C/C(=O)Nc1ccc(C(=O)N2CCCC(Nc3ncc(Cl)c(-c4c[nH]c5ccccc45)n3)C2)cc1` (stereo not drawn), which % of control [8] is on record?
The % of control was 95%.

— ChEMBL document CHEMBL5465560, “Selectivity Literature for EUbOPEN Chemogenomic Library” (2024)
